# Laboratory results published in patent US5608075A (priority 1995, dated 1997).
# Counter-ions that a name gives are not always drawn.
# Assays:
# [1] = system: blood pressure in conscious dogs; assay: Hypotensive effects in conscious dogs before and after furosemide; format: in vivo, dog; settings: cumulative iv 0.3 to 3 mg/kg
# Description: (§1) The hypotensive effects of 2-butyl-4-chloro-1-[2'-(1H-tetrazol-5-yl)biphenyl-4-yl)methyl]-5-hydroxymethylimidazole sodium salt were compared before and after furosemide administration to conscious dogs. […] Plasma renin activity (PRA) in these animals was 1.5±0.5 ng AI/ml/hr. Four days later, furosemide was given to three of these dogs at 10 mg/kg im at 18 and 2 hours before the experiment and increased PRA to 19.9±7.2 ng AI/ml/hr. […] Thus a combined therapy of these two classes of drugs will be likely to increase the response rate to therapy among hypertensive patients.
# pressor response to AII = assay: Inhibition of the pressor response to AII in conscious dogs; format: in vivo, dog
# Description: as §1
# [2] = system: renal vasoconstrictor effect of indomethacin; settings: dogs with non-hypotensive hemorrhage; cited from earlier work
# plasma renin = assay: Plasma renin activity (PRA) in conscious dogs; format: in vivo, dog; settings: furosemide 10 mg/kg im at 18 and 2 hours before the experiment, three dogs; PRA before furosemide 1.5±0.5
# Description: as §1
# [3] = system: blood pressure in renal hypertensive rats; assay: Antihypertensive effects in renal hypertensive rats (left renal artery ligation); format: in vivo, rat
# Description: This procedure increases blood pressure by increasing renin production with consequent elevation of AII levels. Compounds are administered orally at 100 mg/kg and/or intravenously via a cannula in the jugular vein at 10 mg/kg. Arterial blood pressure is continuously measured directly through a carotid artery cannula and recorded using a pressure transducer and a polygraph. Blood pressure levels after treatment are compared to pretreatment levels to determine the antihypertensive effects of the compounds (See Table 6).
# AT1 receptor = settings: cited from earlier work
# AII = settings: cited from earlier work
# arterial pressure = settings: cited from earlier work
# [4] = system: renal vasoconstrictor effect of indomethacin and meclofenamate; settings: dogs; cited from earlier work
# [5] = Solubility studies in nonaqueous solvents at 25° C.; format: physicochemical; settings: overnight equilibration; for solubility: organic solvent or mixture, isopropyl acetate
# [6] = format: physicochemical; settings: 25° C., overnight equilibration
# Excerpt: From these facts it was concluded that the minor endotherm corresponds to an enantiotropic polymorphic transition. The major endotherm is the melting of the high-temperature form. The low-temperature stable polymorph (up to the transition temperature) is designated Form I and the high-temperature stable polymorph is designated Form II. […] Form I is the solid modification consistently obtained by solvent isolation. This was confirmed by recrystallizing the drug substance under varying conditions and analyzing by XRPD. Form II has been obtained only from DSC or related high temperature experiments.
compound,measurement,setting,value
CCCCc1nc(Cl)c(CO)n1Cc1ccc(-c2ccccc2-c2nn[nH]n2)cc1 [2-butyl-4-chloro-1-[2'-(1H-tetrazol-5-yl)biphenyl-4-yl)methyl]-5-hydroxymethylimidazole sodium salt],decrease in blood pressure after furosemide,[1]; furosemide-treated dogs,significant decrease in blood pressure in a dose-dependent manner
same,blood pressure lowering in normotensive conscious dogs,"[1]; n=4, before furosemide",did not lower blood pressure
same,inhibition of the pressor response to AII,"pressor response to AII; cumulative iv 0.3 to 3 mg/kg, AII 0.1 μg/kg iv, 10 min post dose, before furosemide",effective in inhibiting the pressor response to AII
same,inhibition of the pressor response to AII after furosemide,"pressor response to AII; cumulative iv, furosemide-treated dogs",inhibited the pressor response to AII at the two higher doses
C[C@H](CS)C(=O)N1CCC[C@H]1C(=O)O [captopril],reversal of renal vasoconstrictor effect of indomethacin,[2],reverse the renal vasoconstrictor effect of indomethacin in dogs
NS(=O)(=O)c1cc(C(=O)O)c(NCc2ccco2)cc1Cl [furosemide],plasma renin activity (PRA) after furosemide,plasma renin,19.9±7.2 ng AI/ml/hr
"CCCCc1nc(Cl)c(CO)n1Cc1ccc(-c2ccccc2-c2nn[nH]n2)cc1 [Losartan, 2-butyl-4-chloro-1-[(2'-tetrazol-5-yl)-biphenyl-4-yl]methyl]-5-(hydroxymethyl)imidazole potassium salt]","Antihypertensive Effects in Renal Hypertensive Rats, Intravenous Activity","[3]; intravenous, 10 mg/kg",+ (Significant decrease in blood pressure at 10 mg/kg or less)
same,"Antihypertensive Effects in Renal Hypertensive Rats, Oral Activity","[3]; oral, 100 mg/kg",+ (Significant decrease in blood pressure at 100 mg/kg or less)
same,"AII antagonist activity, oral",AT1 receptor,orally active AII antagonists
"CNCC(=O)N[C@@H](CCCN=C(N)N)C(=O)N[C@H](C(=O)N[C@@H](Cc1ccc(O)cc1)C(=O)N[C@H](C(=O)N[C@@H](Cc1cnc[nH]1)C(=O)N1CCC[C@H]1C(=O)N[C@@H](C)C(=O)O)C(C)C)C(C)C [Saralasin, [Sar^1, Ala^8] AII]",block of effects of AII on the blood pressure,AII; pithed rats,blocks the effects of AII on the blood pressure of pithed rats
same,competitive antagonism of the actions of AII,"AII; rat, in vivo",one of the most potent competitive antagonists of the actions of AII
same,oral effectiveness,arterial pressure; oral doses,oral doses being ineffective
same,duration of pharmacological effects,arterial pressure; parenteral administration,relatively short-lasting
same,lowering of arterial pressure,arterial pressure; when the (elevated) pressure is dependent on circulating AII,lower arterial pressure in mammals and man
same,pressor effects (agonistic character),arterial pressure; when the pressure is not sustained by AII,generally elicits pressor effects when the pressure is not sustained by AII
same,inhibition of renal vasoconstrictor effect of indomethacin and meclofenamate,[4],inhibit the renal vasoconstrictor effect of indomethacin and meclofenamate in dogs
"CCCCc1nc(Cl)c(CO)n1Cc1ccc(-c2ccccc2-c2nnn[nH]2)cc1.[K] [Form I, 2-n-butyl-4-chloro-1-[(2'-(tetrazol-5-yl)-1,1'-biphenyl-4-yl)-methyl]-1H-imidazole-5-methanol potassium salt]",solubility in ethyl acetate,[5]; ethyl acetate,~ 0.3 mg/g
same,solubility in isopropanol,[5]; isopropanol,~ 35 mg/g
same,solubility in methyl ethyl ketone,[5]; methyl ethyl ketone,~ 1 mg/g
same,solubility,[5],18 µg/mL
same,polymorph conversion in isopropyl acetate,[6],no conversion of either Form was observed
"CCCCc1nc(Cl)c(CO)n1Cc1ccc(-c2ccccc2-c2nn[nH]n2)cc1 [Form II, 2-n-butyl-4-chloro-1-[(2'-(tetrazol-5-yl)-1,1'-biphenyl]-1H-imidazole-5-methanolpotassium salt]",solubility,[5],41 µg/mL
same,"polymorph conversion in isopropanol, methyl ethyl ketone and ethyl acetate",[6],converts to Form I after overnight equilibration
same,polymorph conversion in isopropyl acetate,[6],no conversion of either Form was observed
